In article PMC7825275 (Cancer chemotherapy and pharmacology, 2019):

How the values were obtained:
patients = conditions: with topotecan 0.6 mg on days 1-5; profound myelosuppression; cited from earlier work
[1] = Veliparib plasma pharmacokinetics; format: in vivo, human
[2] = patients, oral veliparib 10-120 mg BID

## C[C@]1(c2nc3c(C(N)=O)cccc3[nH]2)CCCN1 [veliparib]
patients
  MTD, veliparib dose: 10 mg bid
[1]; P=0.049 by exact Wilcoxon
  AUC on day 3 in the presence of carboplatin and paclitaxel (AUC0-12) vs day 1 veliparib alone (AUC0-inf): barely significantly lower than expected
[1]; day 1 vs day 3
  Cmax in the absence vs presence of carboplatin and paclitaxel: similar
[1]; for a 5.1 h half-life, not observed for Cmax nor AUC
  expected accumulation ratio by day 3 based on observed half-life: 1.20
[1]; human, plasma, po
  half-life: 5.1 h
[1]; [2]
  apparent clearance: 27.5 L/h
  exposure versus dose: increase linearly with dose
